ChEMBL document CHEMBL3734713, “4-Thiazolidinone derivatives as potent antimicrobial agents: microwave-assisted synthesis, biological evaluation and docking studies” (2015)
Values after ≈ are worked out from the molar mass of the structure shown.

Experiments:
Salmonella typhimurium = test: Antibacterial activity against Salmonella typhimurium ATCC 13311 assessed as growth inhibition after 24 hrs at 37 degC by iodonitrotetrazolium chloride staining based microdilution broth assay; type: functional, Salmonella enterica subsp. enterica serovar Typhimurium; settings: Salmonella enterica, ATCC 13311, 24 h
Trichoderma viride = test: Antifungal activity against Trichoderma viride IAM 5061 assessed as growth inhibition after 72 hrs at 28 degC by serial dilution method; type: functional; settings: for MIC: Trichoderma viride, IAM 5061, 72 h
Aspergillus versicolor = test: Antifungal activity against Aspergillus versicolor ATCC 11730 assessed as growth inhibition after 72 hrs at 28 degC by serial dilution method; type: functional; settings: for MIC: Aspergillus versicolor, ATCC 11730, 72 h
Enterobacter cloacae = test: Antibacterial activity against human isolate of Enterobacter cloacae assessed as growth inhibition after 24 hrs at 37 degC by iodonitrotetrazolium chloride staining based microdilution broth assay; type: functional
Aspergillus ochraceus = test: Antifungal activity against Aspergillus ochraceus ATCC 12066 assessed as growth inhibition after 72 hrs at 28 degC by serial dilution method; type: functional; settings: for MIC: Aspergillus ochraceus, ATCC 12066, 72 h
Aspergillus fumigatus = test: Antifungal activity against Aspergillus fumigatus ATCC 1022 assessed as growth inhibition after 72 hrs at 28 degC by serial dilution method; type: functional; settings: for MIC: Aspergillus fumigatus, ATCC 1022, 72 h
Penicillium ochrochloron = test: Antifungal activity against Penicillium ochrochloron ATCC 9112 assessed as growth inhibition after 72 hrs at 28 degC by serial dilution method; type: functional; settings: for MIC: Penicillium ochrochloron, ATCC 9112, 72 h
[1] = target: Human immunodeficiency virus type 1 reverse transcriptase (Human immunodeficiency virus 1) (UniProt Q72547); test: Inhibition of HIV1 reverse transcriptase assessed as residual enzyme activity by measuring reduction in [3H]dTTP incorporation into poly(rA)-oligo(dT) at 4 uM incubated for 15 mins by scintillation counting method relative to control
Staphylococcus aureus = test: Antibacterial activity against Staphylococcus aureus ATCC 6538 assessed as growth inhibition after 24 hrs at 37 degC by iodonitrotetrazolium chloride staining based microdilution broth assay; type: functional; settings: ATCC 6538, 24 h
Pseudomonas aeruginosa = test: Antibacterial activity against Pseudomonas aeruginosa ATCC 27853 assessed as growth inhibition after 24 hrs at 37 degC by iodonitrotetrazolium chloride staining based microdilution broth assay; type: functional; settings: ATCC 27853, 24 h
Escherichia coli = test: Antibacterial activity against Escherichia coli ATCC 35210 assessed as growth inhibition after 24 hrs at 37 degC by iodonitrotetrazolium chloride staining based microdilution broth assay; type: functional; settings: ATCC 35210, 24 h
Candida albicans = test: Antifungal activity against Candida albicans ATCC 10231 assessed as growth inhibition after 72 hrs at 28 degC by serial dilution method; type: functional; settings: for MIC: Candida albicans, ATCC 10231, 72 h
Listeria monocytogenes = test: Antibacterial activity against Listeria monocytogenes NCTC 7973 assessed as growth inhibition after 24 hrs at 37 degC by iodonitrotetrazolium chloride staining based microdilution broth assay; type: functional; settings: NCTC 7973, 24 h
Aspergillus niger = test: Antifungal activity against Aspergillus niger ATCC 6275 assessed as growth inhibition after 72 hrs at 28 degC by serial dilution method; type: functional; settings: for MIC: Aspergillus niger, ATCC 6275, 72 h
Talaromyces funiculosus = test: Antifungal activity against Penicillium funiculosum ATCC 36839 assessed as growth inhibition after 72 hrs at 28 degC by serial dilution method; type: functional; settings: for MIC: Talaromyces funiculosus, ATCC 36839, 72 h
Micrococcus flavus = test: Antibacterial activity against Micrococcus flavus ATCC 10240 assessed as growth inhibition after 24 hrs at 37 degC by iodonitrotetrazolium chloride staining based microdilution broth assay; type: functional; settings: ATCC 10240, 24 h
Bacillus cereus = test: Antibacterial activity against clinical isolates of Bacillus cereus assessed as growth inhibition after 24 hrs at 37 degC by iodonitrotetrazolium chloride staining based microdilution broth assay; type: functional

Row | MIC (Salmonella typhimurium) [µM] | MIC (Trichoderma viride) [µM] | MIC (Aspergillus versicolor) [µM] | MIC (Enterobacter cloacae) [µM] | MIC (Aspergillus ochraceus) [µM] | MIC (Aspergillus fumigatus) [µM] | MIC (Penicillium ochrochloron) [µM] | Activity [1] [%] | MIC (Staphylococcus aureus) [µM] | MIC (Pseudomonas aeruginosa) [µM] | SMILES | MBC (Salmonella typhimurium) [µM] | MFC99.5 (Trichoderma viride) [×10⁻² umol/ml] | MFC99.5 (Aspergillus versicolor) [×10⁻² umol/ml] | MBC (Enterobacter cloacae) [µM] | MFC99.5 (Aspergillus ochraceus) [×10⁻² umol/ml] | MFC99.5 (Aspergillus fumigatus) [×10⁻² umol/ml] | MFC99.5 (Penicillium ochrochloron) [×10⁻² umol/ml] | MBC (Staphylococcus aureus) [µM] | MBC (Pseudomonas aeruginosa) [µM] | MBC (Escherichia coli) [µM] | other results
1 | 9 (≈ 3.73 µg/mL) | 1.2 (≈ 0.497 µg/mL) | 0.4 (≈ 0.166 µg/mL) | 30.6 (≈ 12.7 µg/mL) | 0.4 (≈ 0.166 µg/mL) | 0.8 (≈ 0.332 µg/mL) | 0.4 (≈ 0.166 µg/mL) | 100 | 300 (≈ 124 µg/mL) | 9 (≈ 3.73 µg/mL) | O=C1CSC(c2cccc(F)c2)N1c1nc(C23CC4CC(CC(C4)C2)C3)cs1 (configuration not stated) | 15.3 (≈ 6.34 µg/mL) | 0.14 | 0.14 | 125 (≈ 51.8 µg/mL) | 0.14 | 0.14 | 0.14 | 500 (≈ 207 µg/mL) | 15.3 (≈ 6.34 µg/mL) | 125 (≈ 51.8 µg/mL) | MIC (Escherichia coli): 15.3 µM (≈ 6.34 µg/mL); MFC99.5 (Candida albicans): 0.14 ×10⁻² umol/ml; MIC (Candida albicans): 0.8 µM (≈ 0.332 µg/mL); MBC (Listeria monocytogenes): 125 µM (≈ 51.8 µg/mL); MIC (Listeria monocytogenes): 15.3 µM (≈ 6.34 µg/mL); MFC99.5 (Aspergillus niger): 0.14 ×10⁻² umol/ml; MIC (Aspergillus niger): 0.8 µM (≈ 0.332 µg/mL); MFC99.5 (Talaromyces funiculosus): 0.14 ×10⁻² umol/ml; MIC (Talaromyces funiculosus): 0.8 µM (≈ 0.332 µg/mL); MBC (Micrococcus flavus): 61.2 µM (≈ 25.4 µg/mL); MIC (Micrococcus flavus): 30.6 µM (≈ 12.7 µg/mL); MBC (Bacillus cereus): 500 µM (≈ 207 µg/mL); MIC (Bacillus cereus): 300 µM (≈ 124 µg/mL)
2 | 15.3 (≈ 7.12 µg/mL) | 0.21 (≈ 0.0977 µg/mL) | 0.21 (≈ 0.0977 µg/mL) | 30.6 (≈ 14.2 µg/mL) | 0.42 (≈ 0.195 µg/mL) | 0.42 (≈ 0.195 µg/mL) | 0.21 (≈ 0.0977 µg/mL) | 100 | 9 (≈ 4.19 µg/mL) | 15.3 (≈ 7.12 µg/mL) | O=C1CSC(c2cccc(Cl)c2Cl)N1c1nc(C23CC4CC(CC(C4)C2)C3)cs1 (configuration not stated) | 62.5 (≈ 29.1 µg/mL) | 0.06 | 0.06 | 62.5 (≈ 29.1 µg/mL) | 0.06 | 0.06 | 0.06 | 15.3 (≈ 7.12 µg/mL) | 62.5 (≈ 29.1 µg/mL) | 125 (≈ 58.2 µg/mL) | MIC (Escherichia coli): 62.5 µM (≈ 29.1 µg/mL); MFC99.5 (Candida albicans): 1.075 ×10⁻² umol/ml; MIC (Candida albicans): 5.3 µM (≈ 2.47 µg/mL); MBC (Listeria monocytogenes): 125 µM (≈ 58.2 µg/mL); MIC (Listeria monocytogenes): 62.5 µM (≈ 29.1 µg/mL); MFC99.5 (Aspergillus niger): 0.06 ×10⁻² umol/ml; MIC (Aspergillus niger): 0.21 µM (≈ 0.0977 µg/mL); MFC99.5 (Talaromyces funiculosus): 0.06 ×10⁻² umol/ml; MIC (Talaromyces funiculosus): 0.42 µM (≈ 0.195 µg/mL); MBC (Micrococcus flavus): 62.5 µM (≈ 29.1 µg/mL); MIC (Micrococcus flavus): 30.6 µM (≈ 14.2 µg/mL); MBC (Bacillus cereus): 62.5 µM (≈ 29.1 µg/mL); MIC (Bacillus cereus): 30.6 µM (≈ 14.2 µg/mL)
3 | 210 (≈ 99.9 µg/mL) | 105 (≈ 50 µg/mL) | 105 (≈ 50 µg/mL) | 20 (≈ 9.51 µg/mL) | 105 (≈ 50 µg/mL) | 210 (≈ 99.9 µg/mL) | 210 (≈ 99.9 µg/mL) | 59.9 | 420 (≈ 200 µg/mL) | 420 (≈ 200 µg/mL) | O=C1CSC(c2ccc(Br)cc2)N1c1nc(C23CC4CC(CC(C4)C2)C3)cs1 (configuration not stated) | 420 (≈ 200 µg/mL) | 10.51 | 10.51 | 420 (≈ 200 µg/mL) | 42.04 | 21.02 | 21.02 | 420 (≈ 200 µg/mL) | 630 (≈ 300 µg/mL) | 210 (≈ 99.9 µg/mL) | MIC (Escherichia coli): 210 µM (≈ 99.9 µg/mL); MFC99.5 (Candida albicans): 73.6 ×10⁻² umol/ml; MIC (Candida albicans): 526 µM (≈ 250 µg/mL); MBC (Listeria monocytogenes): 630 µM (≈ 300 µg/mL); MIC (Listeria monocytogenes): 420 µM (≈ 200 µg/mL); MFC99.5 (Aspergillus niger): 31.54 ×10⁻² umol/ml; MIC (Aspergillus niger): 210 µM (≈ 99.9 µg/mL); MFC99.5 (Talaromyces funiculosus): 52.58 ×10⁻² umol/ml; MIC (Talaromyces funiculosus): 210 µM (≈ 99.9 µg/mL); MBC (Micrococcus flavus): 420 µM (≈ 200 µg/mL); MIC (Micrococcus flavus): 210 µM (≈ 99.9 µg/mL); MBC (Bacillus cereus): 210 µM (≈ 99.9 µg/mL); MIC (Bacillus cereus): 105 µM (≈ 49.9 µg/mL)
4 | 215 (≈ 100 µg/mL) | 215 (≈ 100 µg/mL) | 215 (≈ 100 µg/mL) | 430 (≈ 200 µg/mL) | 107 (≈ 50 µg/mL) | 215 (≈ 100 µg/mL) | 215 (≈ 100 µg/mL) | 52.5 | 430 (≈ 200 µg/mL) | 430 (≈ 200 µg/mL) | O=C1CSC(c2c(Cl)cccc2Cl)N1c1nc(C23CC4CC(CC(C4)C2)C3)cs1 (configuration not stated) | 430 (≈ 200 µg/mL) | 21.48 | 32.22 | 430 (≈ 200 µg/mL) | 53.71 | 53.71 | 32.22 | 645 (≈ 300 µg/mL) | 645 (≈ 300 µg/mL) | 430 (≈ 200 µg/mL) | MIC (Escherichia coli): 215 µM (≈ 100 µg/mL); MFC99.5 (Candida albicans): 64.45 ×10⁻² umol/ml; MIC (Candida albicans): 430 µM (≈ 200 µg/mL); MBC (Listeria monocytogenes): 860 µM (≈ 400 µg/mL); MIC (Listeria monocytogenes): 430 µM (≈ 200 µg/mL); MFC99.5 (Aspergillus niger): 32.22 ×10⁻² umol/ml; MIC (Aspergillus niger): 215 µM (≈ 100 µg/mL); MFC99.5 (Talaromyces funiculosus): 53.71 ×10⁻² umol/ml; MIC (Talaromyces funiculosus): 215 µM (≈ 100 µg/mL); MBC (Micrococcus flavus): 430 µM (≈ 200 µg/mL); MIC (Micrococcus flavus): 215 µM (≈ 100 µg/mL); MBC (Bacillus cereus): 645 µM (≈ 300 µg/mL); MIC (Bacillus cereus): 430 µM (≈ 200 µg/mL)
